This passage reports RP-LC retention time results from the METLIN SMRT retention time set (Domingo-Almenara et al. 2019).

The data set is described as follows: gradient 5% acetonitrile 3 min, to 50% in 2 min, to 85% in 15 min, held 3 min, 100 µL/min. Particulars: column: Zorbax Extend-C18 2.1 x 50 mm; eluents: water / acetonitrile, 0.1% formic acid. The method in brief: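 Retention times come from adduct peaks that were picked computationally and then checked by hand. The standards, pure and pooled in mixtures of ~100 molecules, were run on a Zorbax Extend-C18 column (2.1 × 50 mm, 1.8 μm) at 100 μL/min with water and acetonitrile, each with 0.1% formic acid. Detection was by quadrupole time-of-flight mass spectrometry in positive and negative ionization mode, with a dead volume of 40 μL and a dwell volume of 900 μL.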
Compound `CCc1cccc(NC(=O)Cc2cn3cc(F)ccc3n2)c1` showed an RP-LC retention time of 638 s.
Regarding `CC(C)Cn1cc(CCNC(=O)c2ccc(F)c(Cl)c2)c2cccnc21`, the RP-LC retention time is 909 s.
Consider `COc1ccc(N2CCN(C(=O)C3(c4ccc(NC(=O)C5CC5)cc4)CCC3)CC2)cc1`, for which the RP-LC retention time turned out to be 816 s.
On to `O=C(Cn1nc(C2CC2)cc1C(=O)N1CCCC1)Nc1ccccc1`, for which the RP-LC retention time amounted to 740 s.
The compound `COc1ccc(NC(=O)CN2C(=O)C(C)(C)c3ccccc32)c(OC)c1` displayed an RP-LC retention time of 869 s.
`CCc1ccc(C2=C(C)C(N3CCCN(C(=O)Cn4ccnc4)CC3)=NS2(=O)=O)cc1` showed an RP-LC retention time of 642 s.
Take `COCCCN(C(=O)c1ccc(F)cc1)C(C)C(=O)c1c(C)[nH]c(C(=O)OC)c1C` (stereo not drawn): the RP-LC retention time turned out to be 754 s.
The compound `c1cc(-c2sc(-c3ccncc3)c(-c3ccncc3)c2-c2ccncc2)ccn1` yielded an RP-LC retention time of 575 s.
`O=C(NCC(F)F)c1cc2c(s1)N(CC1CC1)CCCC2` gave an RP-LC retention time of 1000 s.
`CCN(CC)c1nc2ccsc2c(=O)n1CCC(=O)NCc1ccc(F)cc1` displayed an RP-LC retention time of 831 s.
As to `Cc1ccc(CCNC(=O)c2ncn3c2C(=O)N(C2CC2)C(C)(C(=O)NC2CCCC2)C3)cc1` (stereo not drawn), the RP-LC retention time is 795 s.
The compound `COc1cc(=O)c(C(=O)NC(C)C)nn1-c1ccc(C)cc1` returned an RP-LC retention time of 694 s.
The figure for `CC(C)CCN1C(=O)CC[C@]2(C(=O)N3CCN(c4ccc(F)cc4)CC3)CCCC[C@@H]12` is 1010 s; for `COCCc1noc(C2CN(S(=O)(=O)c3ccccc3)C2)n1` it is 751 s.
Regarding `O=C(NC1CCCCC1)C1CCN(S(=O)(=O)c2cc(C(=O)N3CCCC3)cs2)CC1`, the RP-LC retention time amounted to 765 s.
With `C[C@]12CC[C@H](O)CC1=CCC1C2CC[C@]2(C)C(n3cnc4ccccc43)=CCC12` (stereo partly drawn), the RP-LC retention time amounted to 948 s.
In turn, `O=C(Cn1c(=O)c2cc(C3CC3)nn2c2ncccc21)NCc1ccc(Cl)cc1` displayed an RP-LC retention time of 791 s.
`Cc1sc(NC(=O)c2ccco2)c(CN2CCN(c3ccc(F)cc3)CC2)c1C`: the RP-LC retention time is 691 s.
On to `CCOc1ccccc1-c1nc(CN(c2ccccc2OC)S(=O)(=O)c2ccccc2C)c(C)o1`, for which the RP-LC retention time came out at 1250 s.
Under `Cc1cccc(-c2nc3ccccn3c2NC(=O)NCc2ccc(F)cc2)c1` stands 714 s; under `COc1ccc(Cn2nc3ccc(S(=O)(=O)N4CCCCC4)cn3c2=O)cc1F`, 918 s.
Consider `Cc1ccc(NC(=O)C(=O)NCC(c2ccc3c(c2)OCO3)N2CCOCC2)c(C)c1` (stereo not drawn), for which the RP-LC retention time came out at 693 s.
`CCc1ccc(NS(=O)(=O)c2cc(-c3nc(C(C)C)cs3)cs2)cc1` displayed an RP-LC retention time of 1260 s.
`O=C(Nc1ccc(OCc2nnc(-c3ccccc3)o2)cc1)c1ccnc(Cl)c1`: the RP-LC retention time stood at 908 s.
As to `CCCC(NC(=O)c1ccc(OC)cc1)C(=O)Nc1nc2ccccc2[nH]1` (stereo not drawn), the RP-LC retention time was 658 s.
With `Cn1nc(C(=O)N2CCCC(C(=O)NC3CC3)C2)c2c1CCN(C(=O)c1ccco1)C2` (stereo not drawn), the RP-LC retention time came to 594 s.
Compound `CCOc1ccc(-c2cc3c(=O)n(Cc4nc(-c5ccccc5)no4)ncn3n2)cc1` registered an RP-LC retention time of 720 s.
`O=C(Nc1cccc(Cl)c1)c1nnn(-c2ccc(F)cc2)c1-c1cccnc1` registered an RP-LC retention time of 963 s.
On to `CCCOc1nn(CCC)cc1C(=O)NCc1ccccc1Cl`, for which the RP-LC retention time was determined as 1010 s.
`COCc1nn(CC2CC2)c2c1CN(C(=O)c1ccc(C)s1)CC2` displayed an RP-LC retention time of 775 s.
The compound `CC1=C(c2ccccc2)S(=O)(=O)N=C1N1CCCN(C(=O)Nc2ccccc2)CC1` showed an RP-LC retention time of 669 s.
`CCN(CC)c1nc(-c2ccc(C(C)(C)C)cc2)nc2ccccc12` returned an RP-LC retention time of 943 s.
In turn, `COCCCNC(=O)Cn1nc(C)c2nn(-c3ccc(Cl)cc3)c(-n3cccc3)c2c1=O` gave an RP-LC retention time of 887 s.
In turn, `Cc1ccc(C)c(NC(=O)Cn2c(N3CCC(C)CC3)nc(C)cc2=O)c1` returned an RP-LC retention time of 772 s.
As for `COc1ccc(OC)c(-c2csc(-c3nnn(-c4ccc(Cl)cc4)c3N)n2)c1`, the RP-LC retention time is 1200 s.
Regarding `COC(=O)c1ncn2c1C(=O)N(Cc1ccc(F)cc1)C(C)(C(=O)NCc1ccc(C)cc1)C2` (stereo not drawn), the RP-LC retention time is 772 s.
Consider `CCN1c2ccc(C)cc2C(=O)NC12CCN(C(=O)c1cccc(C)c1)CC2`, for which the RP-LC retention time is 849 s.
Consider `Cc1ccc(NC(=O)NC2CCN(c3ccccc3)C2=O)cc1F` (stereo not drawn), for which the RP-LC retention time is 855 s.
For `O=C(c1c(F)cccc1F)N1CCN=C1N1CCN(c2cccc(Cl)c2)CC1`, the RP-LC retention time is 765 s.
In turn, `Cc1cc(NC(=O)C(=O)NCCc2ccc(S(N)(=O)=O)cc2)no1` gave an RP-LC retention time of 613 s.
`CSc1ccc(-c2noc(Cn3ncn4nc(-c5cc(C)ccc5C)cc4c3=O)n2)cc1`: the RP-LC retention time is 1260 s.
Consider `Cc1ccc(NC(=O)/C=C/c2ccccc2)c(C)c1`, for which the RP-LC retention time is 913 s.
In turn, `O=C(CSc1nnc2c3sc(N4CCCC4)nc3ncn12)Nc1ccc(F)c(F)c1` came in with an RP-LC retention time of 863 s.
The figure for `CCOc1ccccc1-n1nnc(C(=O)OC)c1C(=O)OC` is 862 s; for `CCOc1ccc(N2CC(c3nnc(NC(=O)c4ccc(Cl)cc4)o3)CC2=O)cc1` (stereo not drawn) it is 803 s; for `O=C(NCc1cccnc1)c1nnc(-c2ccc(S(=O)(=O)N3CCCCC3)cc2)o1` it is 669 s.
In turn, `Cc1ccccc1N1CCN(C(=O)c2cc(C)n3nccc3n2)CC1` came in with an RP-LC retention time of 883 s.
The figure for `Cc1ccc(NC(=O)C2CCN(S(=O)(=O)c3cc(C(=O)N4CCCC4)cs3)CC2)cc1Cl` is 916 s; for `CCNC(=O)N1CC(n2cc(C(=O)N(C)CCCc3c(C)nn(C)c3C)nn2)C1` it is 569 s.
The figure for `COC(=O)COc1cc(-c2ccccc2)nc2ccc(NS(=O)(=O)c3ccccc3)cc12` is 774 s; for `CC1=C(C(=O)N2CCOCC2)C(c2ccccc2Br)C2=C(CC(C)(C)CC2=O)N1` (stereo not drawn) it is 683 s.
On to `CN(C)S(=O)(=O)N1CCC(n2c(Cc3ccccc3)nn(C)c2=O)CC1`, for which the RP-LC retention time was 748 s.
Under `CCc1ccc(N2C=C(C(=O)N3CCOCC3)S(=O)(=O)c3ccc(Cl)cc32)cc1` stands 936 s; under `COc1ccc(OC)c(C(O)CN2CCC(c3nc(C)no3)CC2)c1` (stereo not drawn), 574 s; under `CC(C)NC(=O)C1COC2(CCN(C(=O)c3cccc(Cl)c3)CC2)N1C(=O)c1ccccc1` (stereo not drawn), 725 s.
Consider `COc1ccc(CNc2nc(-c3ccccc3)nnc2C)cc1`, for which the RP-LC retention time stood at 683 s.
On to `Cc1ccc(CNC(=O)C2(C)Oc3cccnc3NC2=O)cc1` (stereo not drawn), for which the RP-LC retention time was 702 s.
In turn, `Cc1nn(CC(=O)N2CCCCCC2)c(=O)c2c(-n3cccc3)n(-c3ccc(Cl)cc3)nc12` came in with an RP-LC retention time of 1090 s.
